Assay results taken from patent publication US20120027905A1, “POLYENE ANTIFUNGAL COMPOSITIONS” (DSM IP ASSETS B.V., priority 2009, published 2012).

How the values were obtained:
[1] = tested on: Penicillium italicum (ATCC 36041); experiment: Antifungal efficacy of natamycin/thickener compositions on wounded oranges (dip treatment); type: in vivo; settings: after 23 days of storage at room temperature; 0.2% (w/v) thickening agent, 1000 μg/ml natamycin; dipped one minute, P. italicum
Method: In a further experiment the antifungal activity of antimicrobial compositions comprising 1000 μg/ml natamycin and 0.2% (w/v) of the thickening agents described above was examined on oranges. The oranges were obtained from a local retailer in The Netherlands. The oranges were treated with spores of the mould Penicillium italicum (ATCC 36041). The mould spores were obtained using well-known methods. The oranges were injured according to the method described by Lapere de Bellaire and Dubois (see Plant disease 81:1378-1383, ([…])). Oranges were wounded three times using a cork borer followed by contamination per wound with 5 μl of a P. italicum spore suspension containing 10^6 spores/ml. After incubation for 1 hour at room temperature, the oranges were dipped for one minute into the freshly prepared antimicrobial compositions, dripped off and dried to the air. The experiment was executed in ninefold. The oranges were stored for 23 days under the conditions as described above and were judged visually on mould development.

[2] = cited from earlier work
[3] = tested on: Botrytis cinerea (ATCC 12481); experiment: Antifungal efficacy of natamycin/thickener compositions on strawberries; type: in vivo; settings: after 6 days of storage at room temperature; 0.6% (w/v) thickening agent, 1000 μg/ml natamycin; B. cinerea
Method: In this experiment the antifungal activity of antimicrobial compositions comprising natamycin and the above-mentioned thickening agents was examined on strawberries. Compositions containing thickening agents and the antifungal agent natamycin were prepared as described in Example 1. The compositions comprised a final concentration of 0.6% (w/v) thickening agent and 1000 μg/ml natamycin. Fresh untreated strawberries from a local retailer in The Netherlands were artificially contaminated with 5 μl of a freshly prepared concentrated suspension of spores (10^6 spores/ml) of the mould species Botrytis cinerea (ATCC 12481). The mould spores were prepared using well-known methods. One hour after contamination the strawberries were dipped for one minute into the freshly prepared antimicrobial compositions, dripped off and dried to the air. The experiment was executed in ninefold. The strawberries were stored for 6 days under the conditions as described in Example 1 and were judged visually on mould development.

[4] = tested on: Aspergillus ochraceus (ATCC 60532); experiment: Antifungal efficacy of natamycin/thickener compositions on fresh coffee beans; type: in vivo; settings: after 4 days of storage at room temperature; 0.6% (w/v) thickening agent, 1000 μg/ml natamycin; A. ochraceus
Method: In this experiment the antifungal activity of the antimicrobial compositions comprising natamycin and the above-mentioned thickening agents was examined on fresh coffee beans. Compositions containing thickening agents and the antifungal agent natamycin were prepared as described in Example 1. The compositions comprised a final concentration of 0.6% (w/v) thickening agent and 1000 μg/ml natamycin. Fresh untreated coffee beans from a local retailer in The Netherlands were artificially contaminated with 5 μl of a freshly prepared concentrated suspension of spores (10^6 spores/mil) of the mould Aspergillus ochraceus (ATCC 60532). The mould spores were prepared using well-known methods. One hour after contamination the coffee beans were dipped for one minute into the freshly prepared antimicrobial compositions, dripped off and dried to the air. The experiment was executed in ninefold. The coffee beans were stored for 4 days under the conditions as described in Example 1 and were judged visually on mould development.

[5] = tested on: most fungi; settings: for most fungi; cited from earlier work

C[C@@H]1C/C=C/C=C/C=C/C=C/[C@H](O[C@@H]2O[C@H](C)[C@@H](O)[C@H](N)[C@@H]2O)C[C@@H]2O[C@](O)(C[C@@H](O)C[C@H]3O[C@@H]3/C=C/C(=O)O1)C[C@H](O)[C@H]2C(=O)O [Natamycin, natamycin]
Moulded orange wounds (total amount of wounds is 9) [1]: 9
solubility in water [2]: 30 to 50 µg/mL
Moulded strawberries of the total of 9 [3]: 6
Moulded coffee beans of the total of 9 [4]: 9
MIC (Minimal Inhibitory Concentration) [5]: less than 10 mg/l
